Results on 26 compounds are retold here after patent publication US10023557B2 (LifeSci Pharmaceuticals, Inc., priority 2015, dated 2018).

What is called EC50 is the midpoint of the concentration-response curve. As a reminder, the IC50 is the point on the concentration scale where inhibition reaches its midpoint.

Experiment [1] addresses cellular kallikrein activity (Homo sapiens (Human), UniProt P03952). In words: In vitro cellular assay (contact assay): kallikrein activity in ellagic acid-activated human plasma, Z-FR-2-AMC substrate. Format: biochemical. Particulars: human plasma activated with ellagic acid, 37° C. On the procedure:
The ability of the compounds disclosed herein to inhibit cellular kallikrein activity was quantified and the respective EC50 value was determined.
All dilutions were prepared in an assay buffer comprising 50 mM Tris-HCl pH 7.2, 150 mM NaCl, and 0.01% Triton X-100.
The ten solutions of the test compounds, prepared by serial dilution, were further diluted 50-fold in the assay buffer.
Human plasma is thawed on ice and centrifuged for 15 min at 4° C. to remove platelets. A 1 mM stock solution of ellagic acid is diluted to 8 μM and mixed with human plasma, after removing platelets, at a ratio of 1:0.8.
A 22.5 μL volume of the final mixture of human plasma and ellagic acid was added to a 96-well microwell plate and the plate was incubated for 15 min at 37° C.
The CINH inhibitor at various concentrations, prepared by serial dilutions as described above, were added to the inhibitor control wells. […] Each CINH concentration is tested in duplicates.
The test compounds at various concentrations, also prepared by serial dilutions as described above, are added to the test wells. […] Each test compound concentration was tested in duplicates.
In addition to the inhibitor control and test wells, the 96 well assay plate includes positive control wells which contained the mixture of human plasma and ellagic acid without C1NH inhibitor or test compounds, and background wells which contained neither the mixture of human plasma and ellagic acid nor the test compounds. The total volume of liquid in positive control and background wells was brought up to 35 μL, using the assay buffer.
The assay plate containing C1NH inhibitors and test compounds mixed with human plasma and ellagic acid and appropriate controls was incubated at 37° C. for 5 min. […] The reagents were mixed well by shaking the plate gently for 30 sec.
The enzyme reaction was quantified by immediate kinetic reading of the assay plate using excitation/emission wavelengths of 330 nm/440 nm respectively. Fluorescence intensity was recorded for 60 min, using a time interval of 43 sec.
The inhibition activity of the test compounds were evaluated using the EC50 values, calculated according to the dose-response curve of the test compounds, fitted using the “log(inhibitor)−response (variable slope)” equation in GraphPadPrism software (GraphPad Software, Inc.).
The percentage inhibition was calculated using the following equation:
[formula] where, Mean (BG) is the average value of the fluorescence intensity of the background wells and Mean (PC) is the average value of the fluorescence intensity of the positive control wells.
Table 4 provides the EC50 values of various compounds disclosed herein.

In experiment [2] the target is human plasma kallikrein (Homo sapiens (Human), UniProt P03952). As to the kind of experiment: In vitro enzyme inhibition of human plasma kallikrein (PFR-AMC cleavage). Particulars: Pro-Phe-Arg-AMC substrate, 37° C., read-out: hPK IC50. Format: biochemical. Summed up:
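Human plasma kallikrein and compound, diluted in 50 mM Tris-HCl pH 7.5, 150 mM NaCl, 0.01% Triton X-100, preincubated 5 min at 37 °C before PFR-AMC was added.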

cellular kallikrein activity, sequence (P03952 391-638): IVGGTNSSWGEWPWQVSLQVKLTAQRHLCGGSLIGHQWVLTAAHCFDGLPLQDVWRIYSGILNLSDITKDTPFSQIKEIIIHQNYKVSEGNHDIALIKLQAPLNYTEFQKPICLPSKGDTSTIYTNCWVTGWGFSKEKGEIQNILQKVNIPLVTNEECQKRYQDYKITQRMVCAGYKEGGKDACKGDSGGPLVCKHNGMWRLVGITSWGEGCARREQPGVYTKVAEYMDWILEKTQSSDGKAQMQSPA
cellular kallikrein activity, sequence (P03952 20-390 partner): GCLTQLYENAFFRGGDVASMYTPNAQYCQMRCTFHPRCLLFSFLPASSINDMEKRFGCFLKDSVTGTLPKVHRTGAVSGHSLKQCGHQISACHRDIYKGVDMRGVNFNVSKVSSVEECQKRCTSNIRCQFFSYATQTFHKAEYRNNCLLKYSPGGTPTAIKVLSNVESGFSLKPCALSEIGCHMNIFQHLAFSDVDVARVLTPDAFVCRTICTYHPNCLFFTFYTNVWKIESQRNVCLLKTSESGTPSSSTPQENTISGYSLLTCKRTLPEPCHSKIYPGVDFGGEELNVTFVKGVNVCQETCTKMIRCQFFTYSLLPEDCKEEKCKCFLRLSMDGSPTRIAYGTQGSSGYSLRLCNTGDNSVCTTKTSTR
human plasma kallikrein, sequence (P03952 391-638): as the sequence (P03952 391-638) above
human plasma kallikrein, sequence (P03952 20-390 partner): as the sequence (P03952 20-390 partner) above

Take `COC(=O)c1cc(Cc2cc(C(=O)NCc3c(C)cc(N)nc3C)ccn2)cc2cc(Cl)cnc12` [Example 92, methyl 6-((4-(((6-amino-2,4-dimethylpyridin-3-yl)methyl)carbamoyl)pyridin-2-yl)methyl)-3-chloroquinoline-8-carboxylate]: the EC50 in experiment [1] was < 100 nM. Still for that read-out and setting: the result for `Cc1cc(N)nc(C)c1CNC(=O)c1ccnc(Cc2cc(C(=O)O)c3ncc(Cl)cc3c2)c1` [Example 93, 6-((4-(((6-amino-2,4-dimethylpyridin-3-yl)methyl)carbamoyl)pyridin-2-yl)methyl)-3-chloroquinoline-8-carboxylic acid] reads < 100 nM; that for `Cc1nc(N)ccc1CNC(=O)c1ccnc(Cc2cc(CO)c3ncc(Cl)cc3c2)c1` [Example 97, N-((6-amino-2-methylpyridin-3-yl)methyl)-2-((3-chloro-8-(hydroxymethyl)quinolin-6-yl)methyl)isonicotinamide], < 100 nM.

For the compound `Cc1cc(N)nc(C)c1CNC(=O)c1ccnc(Cc2ccc3c(cc(Cl)c[n+]3[O-])c2)c1` [Example 99, 6-((4-(((6-amino-2,4-dimethylpyridin-3-yl)methyl)carbamoyl)pyridin-2-yl)methyl)-3-chloroquinoline 1-oxide], in experiment [1], the EC50 was < 100 nM. On to `Cc1nc(N)ccc1CNC(=O)c1ccnc(Cc2cc(Cl)c3ncc(Cl)cc3c2)c1` [Example 101, N-((6-amino-2-methylpyridin-3-yl)methyl)-2-((3,8-dichloroquinolin-6-yl)methyl)isonicotinamide], for which the 50% effective concentration (EC50) in experiment [1] is < 100 nM. As for `Cc1cc(N)nc(C)c1CNC(=O)c1ccnc(Cc2ccc3ncc(Cl)cc3c2F)c1` [Example 102, N-((6-amino-2,4-dimethylpyridin-3-yl)methyl)-2-((3-chloro-5-fluoroquinolin-6-yl)methyl)isonicotinamide], in experiment [1], the EC50 is 100 to 1000 nM. The same measure, in the same setting: the result for `Cc1cc(C(=O)NCc2c(C)cc(N)nc2C)cc(Cc2ccc3ncc(Cl)cc3c2)n1` [Example 104, N-((6-amino-2,4-dimethylpyridin-3-yl)methyl)-2-((3-chloroquinolin-6-yl)methyl)-6-methylisonicotinamide] reads < 100 nM. On to `Cc1cc(N)nc(C)c1CNC(=O)c1ccnc(Cc2cc3cc(Cl)cnc3cn2)c1` [Example 148, N-((6-amino-2,4-dimethylpyridin-3-yl)methyl)-2-((3-chloro-1,7-naphthyridin-6-yl)methyl)isonicotinamide], for which the IC50 in experiment [2] was < 100 nM. Also, the EC50 in experiment [1] is < 100 nM.

In the case of `Cc1nc(N)ccc1CNC(=O)c1ccnc(Cc2cc3cc(Cl)cnc3cn2)c1` [Example 149, N-((6-amino-2-methylpyridin-3-yl)methyl)-2-((3-chloro-1,7-naphthyridin-6-yl)methyl)isonicotinamide], the IC50 in experiment [2] was < 100 nM. Also, in experiment [1], the EC50 was < 100 nM. For `Cc1cc(N)nc(C)c1CNC(=O)c1ccnc(Cc2cnc3[nH]c(C(F)(F)F)cc3c2)c1` [Example 152, N-((6-amino-2,4-dimethylpyridin-3-yl)methyl)-2-((2-(trifluoromethyl)-1H-pyrrolo[2,3-b]pyridin-5-yl)methyl)isonicotinamide], the IC50 in experiment [2] was < 100 nM. Moreover, the EC50 in experiment [1] lay in the range of 100 to 1000 nM.

Regarding `Cc1cc(N)nc(C)c1CNC(=O)c1ccnc(Cc2cc3cc(Cl)cn3cn2)c1` [Example 153, N-((6-amino-2,4-dimethylpyridin-3-yl)methyl)-2-((6-chloropyrrolo[1,2-c]pyrimidin-3-yl)methyl)isonicotinamide], in experiment [2], the IC50 was < 100 nM. Moreover, the EC50 in experiment [1] was < 100 nM. For `Cc1ccn2cnc(CNC(=O)c3ccnc(Cc4ccc5ncc(Cl)cc5c4)c3)c2c1` [Example 156, 2-((3-chloroquinolin-6-yl)methyl)-N-((7-methylimidazo[1,5-a]pyridin-1-yl)methyl)isonicotinamide], in experiment [2], the IC50 was < 100 nM. The compound also returned an EC50 in experiment [1] of 100 to 1000 nM. On to `Cc1cc(CN)nc(C)c1CNC(=O)c1ccnc(Cc2ccc3ncc(Cl)cc3c2)c1` [Example 171, N-((6-(aminomethyl)-2,4-dimethylpyridin-3-yl)methyl)-2-((3-chloroquinolin-6-yl)methyl)isonicotinamide], for which the concentration for half-maximal inhibition (IC50) in experiment [2] was < 100 nM. The EC50 in experiment [1] lay within 100 to 1000 nM. `Cc1cc(CN)nc(C)c1CNC(=O)c1ccnc(Cc2ccc3ncc(C(F)(F)F)cc3c2)c1` [Example 172, N-((6-(aminomethyl)-2,4-dimethylpyridin-3-yl)methyl)-2-((3-(trifluoromethyl)quinolin-6-yl)methyl)isonicotinamide]: the IC50 in experiment [2] was < 100 nM. In addition, in experiment [1], the EC50 is < 100 nM.

Turning to `Cc1nc2c(c(C)c1CNC(=O)c1ccnc(Cc3ccc4ncc(C(F)(F)F)cc4c3)c1)CCN2` [Example 176, N-((4,6-dimethyl-2,3-dihydro-1H-pyrrolo[2,3-b]pyridin-5-yl)methyl)-2-((3-(trifluoromethyl)quinolin-6-yl)methyl)isonicotinamide], the concentration for half-maximal inhibition (IC50) in experiment [2] was < 100 nM. This compound gave an EC50 in experiment [1] of 100 to 1000 nM. As for `Cc1c(CNC(=O)c2ccnc(Cc3ccc4ncc(Cl)cc4c3)c2)ccc2c(N)nccc12` [Example 177, N-((1-amino-5-methylisoquinolin-6-yl)methyl)-2-((3-chloroquinolin-6-yl)methyl)isonicotinamide], the IC50 in experiment [2] was < 100 nM. Moreover, the EC50 in experiment [1] is < 100 nM. On to `Nc1nccc2c(F)c(CNC(=O)c3ccnc(Cc4ccc5ncc(Cl)cc5c4)c3)ccc12` [Example 178, N-((1-amino-5-fluoroisoquinolin-6-yl)methyl)-2-((3-chloroquinolin-6-yl)methyl)isonicotinamide], for which the IC50 in experiment [2] was < 100 nM. Besides, the EC50 in experiment [1] was < 100 nM. Compound `Cc1cc(N)nc(C)c1CNC(=O)c1cc(Cc2ccc3ncc(Cl)cc3c2)nc(C(=O)O)c1` [Example 209, 4-((6-amino-2,4-dimethylpyridin-3-yl)methylcarbamoyl)-6-((3-chloroquinolin-6-yl)methyl)picolinic acid] had an EC50 in experiment [1] of 100 to 1000 nM. As for `Cc1cnc2c(C(C)(C)O)cc(Cc3cc(C(=O)NCc4cc5c(Cl)c[nH]c5cc4F)ccn3)cc2c1` [Example 314, N-((3-chloro-6-fluoro-1H-indol-5-yl)methyl)-2-((8-(2-hydroxypropan-2-yl)-3-methylquinolin-6-yl)methyl)isonicotinamide], the IC50 in experiment [2] is < 100 nM. On to `Cc1cnc2c(C(C)(C)O)cc(Cc3cc(C(=O)NCc4ccc5[nH]cc(Cl)c5c4F)ccn3)cc2c1` [Example 315, N-((3-chloro-4-fluoro-1H-indol-5-yl)methyl)-2-((8-(2-hydroxypropan-2-yl)-3-methylquinolin-6-yl)methyl)isonicotinamide], for which, in experiment [2], the IC50 was < 100 nM. Turning to `Cc1cnc2c(C(C)(C)O)cc(Cc3cc(C(=O)NCc4cnc5[nH]cc(Cl)c5c4)ccn3)cc2c1` [Example 316, N-((3-chloro-1H-pyrrolo[2,3-b]pyridin-5-yl)methyl)-2-((8-(2-hydroxypropan-2-yl)-3-methylquinolin-6-yl)methyl)isonicotinamide], the IC50 in experiment [2] was < 100 nM. Still for that read-out and setting: the figure for `Cc1cnc2c(C(C)(C)O)cc(Cc3cc(C(=O)NCc4n[nH]c5ccc(Cl)cc45)ccn3)cc2c1` [Example 317, N-((5-chloro-1H-indazol-3-yl)methyl)-2-((8-(2-hydroxypropan-2-yl)-3-methylquinolin-6-yl)methyl)isonicotinamide] is < 100 nM. Still for that read-out and setting: the figure for `Cc1cnc2c(C(C)(C)O)cc(Cc3cc(C(=O)NCc4c(C)cc(N)nc4C)ccn3)cc2c1` [Example 318, N-((6-amino-2,4-dimethylpyridin-3-yl)methyl)-2-((8-(2-hydroxypropan-2-yl)-3-methylquinolin-6-yl)methyl)isonicotinamide] is < 100 nM; for `Cc1cnc2c(C(C)(C)O)cc(Cc3cc(C(=O)NCc4ccc5c(N)nccc5c4)ccn3)cc2c1` [Example 319] it is < 100 nM. For the compound `O=C(NCc1cc2c(Cl)c[nH]c2cc1F)c1ccnc(Cc2ccc3ncc(N4CCC4)cc3c2)c1` [Example 320, 2-((3-(azetidin-1-yl)quinolin-6-yl)methyl)-N-((3-chloro-6-fluoro-1H-indol-5-yl)methyl)isonicotinamide], in experiment [2], the IC50 is < 100 nM. Same read-out and setting: the figure for “N-(6-amino-2,4-dimethyl-pyridin-3-ylmethyl)-2-(2-cyano-quinolin-6-ylmethyl)-isonicotinamide [Example 131]” is < 100 nM.
